From PMC10857906, “PROTAC-mediated NR4A1 degradation as a novel strategy for cancer immunotherapy” (The Journal of Experimental Medicine, 2024) come the findings set out here.

One assay concerns B16F10 melanoma. Nature of the assay: B16F10 melanoma syngeneic tumor model. It counts as in vivo, mouse. From the text: (§1) 7–9-wk-old C57BL/6J, B6.129S2-Ighm^tm1Cgn/J (002288), B6.129S2-Nr4a1^tm1Jmi/J (NR4A1^−/−, 006187), and NOD-SCID interleukin-2 receptor gamma null (NSG) mice were purchased from Jackson Laboratories. For all studies involving NR-V04 and celastrol, the compounds were formulated in 50% phosal PG, 45% miglyol 810N, and 5% polysorbate 80 and administered via i.p. injection.
(§2) For syngeneic tumor models, 5 × 10^5 cells MC38, Yumm1.7, and Yummer1.7, 1 × 10^5 cells of B16F10 were resuspended in PBS and implanted into 7–9-wk-old mice subcutaneously. For the tumor inhibition experiment, mice were treated with 1.8 mg/kg NR-V04 or 0.75 mg/kg celastrol by i.p. injection twice weekly. For the immune profile experiment, once tumors reached 0.5 cm in diameter, mice were treated with 1.8 mg/kg NR-V04 by i.p. injection twice weekly. For the toxicity experiment, male and female non-tumor-bearing mice were treated with 2 mg/kg NR-V04 for two doses in the first week and 5 mg/kg for another two doses in the second week. Blood samples were taken from the submandibular (facial) vein before each treatment and 42 days later for hematological analysis, and body weight was measured twice per week up to day 42. Mice were euthanized in accordance with the IACUC protocol once the largest tumors reached 2 cm in diameter, and tissues were collected for further analysis.

A further assay relates to MC38 tumors. Nature of the assay: MC38 colon cancer syngeneic tumor model. The format is in vivo, mouse.
Excerpt: as §1, §2

Another assay concerns the target T1, NR4A1 (Homo sapiens, UniProt P22736).
T1 construct: NR-V04 effectively promoted the degradation of NR4A1 in two human melanoma cell lines within 16 h; endogenous in cells; host or cells: CHL-1, A375, WM164, M229 human melanoma cells
Nature of the assay: NR4A1 degradation in A375 human melanoma cells (immunoblotting). It counts as cell-based. The following applies: 16 h treatment, read-out: 50% degradation concentration (DC50) of NR4A1. As for the experimental part: Human melanoma cell lines: A375 and CHL-1 (gifts from Dr. D. Zhou, the University of Texas Health Science Center, San Antonio, TX, USA) were cultured in Dulbecco’s Modified Eagles’ Medium (DMEM, D5796; Sigma-Aldrich), WM164 and M229 (gifts from Dr. K.S.M. Smalley’s lab) were cultured in RPMI-1640 (R8758; Sigma-Aldrich). Mouse melanoma cell lines: B16F10 (CRL-6475, ATCC) was cultured in DMEM, SW1 and SM1 (gift from Dr. K.S.M. Smalley, Moffitt Cancer Center, Tampa, FL, USA) were cultured in RPMI. Human epithelial kidney cell lines: HEK293T (293T, CRL-3216; ATCC) and Vhl-KO-293T (gift from Dr. D. Zhou, the University of Texas Health Science Center, San Antonio, TX, USA) were cultured in DMEM. Mouse colon cancer cell lines: MC38 (ENH204-FP; Kerafast Inc.) was cultured in DMEM supplemented with 1 mM glutamine, […] non-essential amino acids (11140050; Thermo Fisher Scientific), 1 mM sodium pyruvate (11360070; Thermo Fisher Scientific), and 10 mM HEPES (15630080; Thermo Fisher Scientific). […]
Samples were lysed using radioimmunoprecipitation assay buffer (RIPA) lysis buffer (150 mM NaCl, 5 mM EDTA, 50 mM Tris pH 8.0, 0.5% sodium deoxycholate, 1% NP-40, 0.1% SDS) supplemented with 1 mM dithiothreitol and protease inhibitors. The lysates were separated by SDS-PAGE and analyzed using standard western blotting procedures ([Khan et al., 2019]). […]

T1 sequence (P22736 whole entry): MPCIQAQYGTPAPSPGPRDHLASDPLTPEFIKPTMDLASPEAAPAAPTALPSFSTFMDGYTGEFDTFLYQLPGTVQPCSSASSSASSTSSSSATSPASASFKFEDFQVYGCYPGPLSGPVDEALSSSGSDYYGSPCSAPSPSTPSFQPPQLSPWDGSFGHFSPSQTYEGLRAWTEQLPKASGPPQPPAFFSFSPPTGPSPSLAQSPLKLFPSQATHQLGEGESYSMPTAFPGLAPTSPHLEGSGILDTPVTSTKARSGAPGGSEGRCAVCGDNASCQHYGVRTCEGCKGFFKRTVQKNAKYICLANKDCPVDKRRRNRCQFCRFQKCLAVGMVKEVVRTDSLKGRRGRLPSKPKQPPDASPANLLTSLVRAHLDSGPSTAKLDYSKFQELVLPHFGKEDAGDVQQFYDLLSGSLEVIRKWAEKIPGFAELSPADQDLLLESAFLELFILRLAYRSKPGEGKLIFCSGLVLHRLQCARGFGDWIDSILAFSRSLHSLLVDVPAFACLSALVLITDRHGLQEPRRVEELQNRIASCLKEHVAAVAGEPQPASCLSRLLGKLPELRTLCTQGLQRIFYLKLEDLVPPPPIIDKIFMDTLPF

Turning to `CC1=C(O)C(=O)C=C2C1=CC=C1[C@@]2(C)CC[C@@]2(C)[C@@H]3C[C@](C)(C(=O)NCCOCCOCCOCCOCC(=O)N[C@H](C(=O)N4C[C@H](O)C[C@H]4C(=O)N[C@@H](C)c4ccc(-c5scnc5C)cc4)C(C)(C)C)CC[C@]3(C)CC[C@]12C` [NR-V04], the tumor growth entry in the assay on B16F10 melanoma (B16F10 in B6.129S2-Ighm^tm1Cgn/J mice that lack mature B cells) is listed as “unable to inhibit tumor growth”; in the assay on B16F10 melanoma (B16F10 in NR4A1^−/− mice, 1.8 mg/kg i.p.), “failed to inhibit B16F10”; in the assay on B16F10 melanoma (B16F10 in NSG mice, 1.8 mg/kg i.p.) it was “failed to inhibit tumor growth”; with B16F10 melanoma (B16F10 in WT mice, 1.8 mg/kg NR-V04 or 0.75 mg/kg celastrol i.p. twice a week from day 7), “effectively inhibited tumor growth”; in the assay on MC38 tumors (MC38 in NSG mice, 1.8 mg/kg i.p.), “failed to inhibit tumor growth”; in the assay on MC38 tumors (MC38 in WT mice, 1.8 mg/kg NR-V04 or 0.75 mg/kg celastrol i.p. twice a week from day 7) it was “effectively inhibited tumor growth”. In the assay on MC38 tumors (MC38 tumors), the “CD8^+ Texh cells in vivo” value is listed as “did not observe a significant decrease in CD8^+ Texh cells”. In addition, on NR4A1, the DC50 turned out to be 519 nM.
